# Where two headings read alike, the source gives them in different places.
# Legend:
# Assay in all cases: Protein kinase activity in the presence of compound
# Format in all cases: biochemical
# p70 S6K = conditions: 10 μM compound; percentage of the activity measured in the absence of inhibitors
# Experimental: (§1) The action of the compound of formula (14) was tested on a selection of 29 different protein kinases. The activity of these enzymes was measured in the presence of 10 μM of compound, according to the general methodology described by Bain et al. (2003) Biochem. J. 371:199-204 and Davies et al. (2000) Biochem. J. 351:95-105.
# (§2) Residual enzyme activity of protein kinases in the presence of inhibitor compounds at the concentration given (expressed as a percentage of the activity measured in the absence of inhibitors). The results obtained for gossypol and gossypolone are given by way of comparison.
# PHK = PHK (Oryctolagus cuniculus, UniProt P00518); conditions: read-out: Residual activity PHK
# Experimental: as §1, §2
# SAPK3/p38g = target: T1, SAPK3/p38g (Homo sapiens, UniProt P53778); conditions: read-out: Residual activity SAPK3/p38g
# T1 sequence (P53778 1-367): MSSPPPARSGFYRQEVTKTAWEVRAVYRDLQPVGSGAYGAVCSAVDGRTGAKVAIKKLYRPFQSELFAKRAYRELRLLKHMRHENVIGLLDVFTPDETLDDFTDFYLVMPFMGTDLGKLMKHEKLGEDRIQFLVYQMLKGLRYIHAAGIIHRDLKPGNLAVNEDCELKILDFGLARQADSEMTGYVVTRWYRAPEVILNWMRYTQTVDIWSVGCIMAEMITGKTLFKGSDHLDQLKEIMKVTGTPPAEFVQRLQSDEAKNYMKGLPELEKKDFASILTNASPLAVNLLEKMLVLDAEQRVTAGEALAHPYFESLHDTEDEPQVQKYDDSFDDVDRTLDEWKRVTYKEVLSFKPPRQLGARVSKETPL
# Experimental: as §1, §2
# MAPK2/ERK2 = MAPK2/ERK2 (Homo sapiens, UniProt P28482); conditions: read-out: Residual activity MAPK2/ERK2
# Experimental: as §1, §2
# GSK3b = GSK3b (Homo sapiens, UniProt P49841); conditions: read-out: Residual activity GSK3b
# Experimental: as §1, §2
# SGK = target: T2, SGK (Homo sapiens, UniProt O00141); conditions: for remaining activity at 10 µM: read-out: Residual activity SGK
# T2 sequence (O00141 1-431): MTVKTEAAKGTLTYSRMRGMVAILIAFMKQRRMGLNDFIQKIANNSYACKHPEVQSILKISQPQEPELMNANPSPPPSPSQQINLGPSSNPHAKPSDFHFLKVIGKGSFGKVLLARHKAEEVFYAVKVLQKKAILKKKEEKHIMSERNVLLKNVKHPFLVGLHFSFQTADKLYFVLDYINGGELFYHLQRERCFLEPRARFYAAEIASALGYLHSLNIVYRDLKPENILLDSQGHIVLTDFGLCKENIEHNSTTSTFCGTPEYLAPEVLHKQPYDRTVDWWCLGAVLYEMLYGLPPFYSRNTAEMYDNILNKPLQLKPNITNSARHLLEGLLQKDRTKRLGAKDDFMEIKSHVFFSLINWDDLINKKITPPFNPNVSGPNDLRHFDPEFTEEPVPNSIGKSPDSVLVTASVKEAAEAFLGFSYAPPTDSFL
# Experimental: as §1, §2
# DYRK1a = DYRK1a (Homo sapiens, UniProt Q13627); conditions: read-out: Residual activity DYRK1a
# Experimental: as §1, §2
# PKA = PKA (Homo sapiens, UniProt P17612); conditions: read-out: Residual activity PKA
# Experimental: as §1, §2
# SAPK4/p38d = target: T3, SAPK4/p38d (Homo sapiens, UniProt O15264); conditions: read-out: Residual activity SAPK4/p38d
# T3 sequence (O15264 1-365): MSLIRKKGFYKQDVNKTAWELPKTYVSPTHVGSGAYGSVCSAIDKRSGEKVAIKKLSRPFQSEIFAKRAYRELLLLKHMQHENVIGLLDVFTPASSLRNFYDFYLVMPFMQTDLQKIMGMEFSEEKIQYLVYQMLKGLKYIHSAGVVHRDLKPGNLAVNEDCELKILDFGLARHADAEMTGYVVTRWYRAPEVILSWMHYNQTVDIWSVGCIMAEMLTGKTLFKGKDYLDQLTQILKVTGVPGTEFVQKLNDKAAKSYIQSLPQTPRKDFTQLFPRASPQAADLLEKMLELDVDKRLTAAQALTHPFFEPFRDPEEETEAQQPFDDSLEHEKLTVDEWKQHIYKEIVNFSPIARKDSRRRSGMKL
# Experimental: as §1, §2
# CDK2/cyclin A = CDK2/cyclin A (Homo sapiens, UniProt P24941); conditions: read-out: Residual activity CDK2/cyclin A
# Experimental: as §1, §2
# CHK1 = target: T4, CHK1 (Homo sapiens, UniProt O14757); conditions: read-out: Residual activity CHK1
# T4 sequence (O14757 1-476): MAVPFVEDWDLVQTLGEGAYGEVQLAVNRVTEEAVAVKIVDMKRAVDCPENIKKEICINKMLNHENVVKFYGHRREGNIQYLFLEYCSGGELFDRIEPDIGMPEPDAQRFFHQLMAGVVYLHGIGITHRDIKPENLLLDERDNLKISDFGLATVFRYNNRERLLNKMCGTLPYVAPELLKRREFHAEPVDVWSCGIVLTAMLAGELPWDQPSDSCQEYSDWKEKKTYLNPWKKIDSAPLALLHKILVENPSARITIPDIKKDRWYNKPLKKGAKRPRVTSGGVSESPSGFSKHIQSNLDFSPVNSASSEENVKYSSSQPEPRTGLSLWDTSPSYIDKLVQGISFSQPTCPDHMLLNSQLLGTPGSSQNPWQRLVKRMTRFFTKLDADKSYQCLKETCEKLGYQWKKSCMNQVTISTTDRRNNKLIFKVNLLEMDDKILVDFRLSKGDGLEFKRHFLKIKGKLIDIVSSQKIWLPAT
# Experimental: as §1, §2
# PKCa = PKCa (Homo sapiens, UniProt P17252); conditions: read-out: Residual activity PKCa
# Experimental: as §1, §2
# MAPKAP-K1a = MAPKAP-K1a (Homo sapiens, UniProt Q15418); conditions: read-out: Residual activity MAPKAP-K1a
# Experimental: as §1, §2
# CK2 = CK2 (Homo sapiens, UniProt P68400); conditions: read-out: Residual activity CK2
# Experimental: as §1, §2
# NEK6 = NEK6 (Homo sapiens, UniProt Q9HC98); conditions: read-out: Residual activity NEK6
# Experimental: as §1, §2
# CK1 = conditions: 10 μM compound; percentage of the activity measured in the absence of inhibitors
# Experimental: as §1, §2
# [1] = 10 μM compound, percentage of the activity measured in the absence of inhibitors
# Chain of NEK6 (Q9HC98 whole entry, species assumed): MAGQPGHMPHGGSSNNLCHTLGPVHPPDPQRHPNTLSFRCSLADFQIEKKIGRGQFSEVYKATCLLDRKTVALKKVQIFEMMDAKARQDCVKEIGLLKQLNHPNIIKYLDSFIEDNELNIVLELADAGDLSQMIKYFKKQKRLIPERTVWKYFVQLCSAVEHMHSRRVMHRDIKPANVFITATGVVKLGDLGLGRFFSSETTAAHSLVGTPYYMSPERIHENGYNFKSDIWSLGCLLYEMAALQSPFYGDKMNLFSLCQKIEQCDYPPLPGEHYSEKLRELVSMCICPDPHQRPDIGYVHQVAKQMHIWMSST
# Chain of GSK3b (P49841 whole entry, species assumed): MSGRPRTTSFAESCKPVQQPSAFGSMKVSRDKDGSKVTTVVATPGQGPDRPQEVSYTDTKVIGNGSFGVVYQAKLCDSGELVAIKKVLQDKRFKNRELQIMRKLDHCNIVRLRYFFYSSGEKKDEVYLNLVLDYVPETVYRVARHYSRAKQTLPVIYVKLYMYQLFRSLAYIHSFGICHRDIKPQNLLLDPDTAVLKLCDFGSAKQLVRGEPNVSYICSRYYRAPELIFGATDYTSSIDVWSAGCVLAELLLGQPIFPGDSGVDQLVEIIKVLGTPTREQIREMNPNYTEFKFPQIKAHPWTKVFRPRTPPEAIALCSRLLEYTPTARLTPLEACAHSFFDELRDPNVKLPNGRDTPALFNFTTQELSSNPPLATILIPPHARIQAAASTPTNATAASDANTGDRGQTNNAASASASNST
# Chain of MAPK2/ERK2 (P28482 whole entry): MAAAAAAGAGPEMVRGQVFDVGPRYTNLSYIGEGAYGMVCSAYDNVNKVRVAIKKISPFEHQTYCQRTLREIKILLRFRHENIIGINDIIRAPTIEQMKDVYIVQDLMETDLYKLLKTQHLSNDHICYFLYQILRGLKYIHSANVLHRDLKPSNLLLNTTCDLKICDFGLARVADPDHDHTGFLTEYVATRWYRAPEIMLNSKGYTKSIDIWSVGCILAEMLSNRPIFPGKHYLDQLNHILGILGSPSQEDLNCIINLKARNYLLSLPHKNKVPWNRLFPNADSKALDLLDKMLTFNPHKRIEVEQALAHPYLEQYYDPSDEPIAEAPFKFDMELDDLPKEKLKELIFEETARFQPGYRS
# Chain of CK2 (P68400 whole entry): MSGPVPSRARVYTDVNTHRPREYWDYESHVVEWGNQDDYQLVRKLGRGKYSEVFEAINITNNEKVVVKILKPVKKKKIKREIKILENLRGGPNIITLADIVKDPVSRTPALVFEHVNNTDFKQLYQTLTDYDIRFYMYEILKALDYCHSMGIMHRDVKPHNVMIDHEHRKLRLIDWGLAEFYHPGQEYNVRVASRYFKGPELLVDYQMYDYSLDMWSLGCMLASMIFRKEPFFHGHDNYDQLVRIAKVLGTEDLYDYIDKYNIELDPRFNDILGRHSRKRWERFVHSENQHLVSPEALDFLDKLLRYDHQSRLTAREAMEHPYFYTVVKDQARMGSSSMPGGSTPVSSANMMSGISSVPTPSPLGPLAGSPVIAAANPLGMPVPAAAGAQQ
# Chain of MAPKAP-K1a (Q15418 whole entry, species assumed): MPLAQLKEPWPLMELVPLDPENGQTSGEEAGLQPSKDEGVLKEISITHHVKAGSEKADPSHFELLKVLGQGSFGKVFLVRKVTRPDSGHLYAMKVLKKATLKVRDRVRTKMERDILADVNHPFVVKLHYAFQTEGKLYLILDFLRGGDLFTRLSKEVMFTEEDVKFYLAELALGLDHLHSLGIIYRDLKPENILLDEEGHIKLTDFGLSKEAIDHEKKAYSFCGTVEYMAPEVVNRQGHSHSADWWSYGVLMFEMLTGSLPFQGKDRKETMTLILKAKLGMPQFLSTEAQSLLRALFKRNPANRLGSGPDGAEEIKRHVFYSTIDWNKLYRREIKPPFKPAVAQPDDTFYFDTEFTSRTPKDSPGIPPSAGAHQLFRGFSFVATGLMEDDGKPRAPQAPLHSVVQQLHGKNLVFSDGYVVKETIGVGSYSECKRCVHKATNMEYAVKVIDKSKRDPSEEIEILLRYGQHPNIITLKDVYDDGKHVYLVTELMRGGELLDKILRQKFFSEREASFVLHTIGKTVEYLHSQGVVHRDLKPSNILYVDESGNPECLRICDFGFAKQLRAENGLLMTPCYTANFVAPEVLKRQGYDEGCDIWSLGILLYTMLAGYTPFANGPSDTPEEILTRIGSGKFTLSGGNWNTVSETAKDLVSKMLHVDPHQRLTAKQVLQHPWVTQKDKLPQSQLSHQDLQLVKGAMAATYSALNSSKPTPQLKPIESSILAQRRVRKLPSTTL
Structure (SMILES),Residual activity p70 S6K (p70 S6K),remaining activity at 10 µM (PHK),remaining activity at 10 µM (SAPK3/p38g),remaining activity at 10 µM (MAPK2/ERK2),remaining activity at 10 µM (GSK3b),remaining activity at 10 µM (SGK),remaining activity at 10 µM (DYRK1a),remaining activity at 10 µM (PKA),remaining activity at 10 µM (SAPK4/p38d),remaining activity at 10 µM (CDK2/cyclin A),remaining activity at 10 µM (CHK1),remaining activity at 10 µM (PKCa),remaining activity at 10 µM (MAPKAP-K1a),remaining activity at 10 µM (CK2),remaining activity at 10 µM (NEK6),Residual activity CK1 (CK1),Reduction of the activity of SGK (SGK; 10 μM compound),also measured
"Cc1cc2c(C(C)C)c(O)c(O)c(C=O)c2c(O)c1-c1c(C)cc2c(C(C)C)c(O)c(O)c(C=O)c2c1O [Gossypol, gossypol]",110%,23%,108%,65%,47%,14%,21%,47%,66%,97%,9%,96%,77%,80%,92%,89%,,
"CC1=C(C2=C(C)C(=O)c3c(c(CSCCO)c(O)c(O)c3C(C)C)C2=O)C(=O)c2c(CSCCO)c(O)c(O)c(C(C)C)c2C1=O [Compound (14), 6,7,6′,7′-tetrahydroxy-8,8′-bis-(2-hydroxy-ethylsulphanylmethyl)-5,5′-diisopropyl-3,3′-dimethyl-[2,2′]binaphthalenyl-1,4,1′,4′-tetraone]",52%,,,,,,,,,,,,,,,77%,93%,remaining activity at 10 µM (PHK; [1]): 27%; remaining activity at 10 µM (SAPK3/p38g; [1]): 76%; remaining activity at 10 µM (MAPK2/ERK2; [1]): 58%; remaining activity at 10 µM (GSK3b; [1]): 85%; remaining activity at 10 µM (SGK; [1]): 7%; remaining activity at 10 µM (DYRK1a; [1]): 16%; remaining activity at 10 µM (PKA; [1]): 59%; remaining activity at 10 µM (SAPK4/p38d; [1]): 85%; remaining activity at 10 µM (CDK2/cyclin A; [1]): 111%; remaining activity at 10 µM (CHK1; [1]): 47%; remaining activity at 10 µM (PKCa; [1]): 86%; remaining activity at 10 µM (MAPKAP-K1a; [1]): 60%; remaining activity at 10 µM (CK2; [1]): 85%; remaining activity at 10 µM (NEK6; [1]): 81%
"CC1=C(C2=C(C)C(=O)c3c(c(O)c(O)c(O)c3C(C)C)C2=O)C(=O)c2c(O)c(O)c(O)c(C(C)C)c2C1=O [Compound (4), 6,7,8,6′,7′,8′-hexahydroxy-5,5′-diisopropyl-3,3′-dimethyl-[2.2′]binaphthalenyl-1,4,1′,4′-tetraone]",34%,47%,89%,52%,63%,4%,25%,69%,88%,113%,127%,85%,58%,80%,86%,88%,96%,
"CC1=C(C2=C(C)C(=O)c3c(c(C=O)c(O)c(O)c3C(C)C)C2=O)C(=O)c2c(C=O)c(O)c(O)c(C(C)C)c2C1=O [Gossypolone, gossypolone, reference compound]",35%,21%,83%,46%,43%,3%,27%,69%,75%,90%,24%,78%,55%,79%,89%,64%,,
